Data taken from paper PMC8682738, “Constrained peptides mimic a viral suppressor of RNA silencing” (Nucleic Acids Research, 2021).
Positions of bridges follow the written chain, without caps; N, C: chain ends. Non-standard residues stand in square brackets, D forms with d. Residues, ends and D or L forms follow the SMILES beside them. *: point of attachment. FITC = O=C1OC2(c3ccc(O)cc3Oc3cc(O)ccc32)c2ccc(NC(=S)*)cc21; R8 = C=CCCCCCC[C@@](C)(N)C(=O)O; S5 = C=CCCC[C@](C)(N)C(=O)O; AEEA = NCCOCCOCC(=O)O

Experiments:
[1] = system: K562 human leukemia cells; experiment: Peptide uptake by flow cytometry; assay type: cell-based; conditions: fluorescein-labeled peptide 1 μM, 90 min
Protocol: 2 × 10^6 K562 cells were plated per well in 48-well plates in presence of fluorescein-labeled peptides (c = 1 μM, 0.5% DMSO) in a total volume of 300 μl. After 90 min, cells were treated with proteinase K (2 μg·ml^−1) for 10 min to remove extracellular peptides. Cells were extensively washed and total uptake of labeled peptide was measured by flow cytometry (Cytoflex, Beckman Coulter with the CytExpert software version 2.3). For each peptide, 20 000 events per sample were collected with >85% viable cells (forward/side scatter) that were considered for analysis using a 525/40 nm filter. DMSO was used as a control to distinguish general DMSO-related and peptide-specific effects. Each experiment was performed in triplicate.

[2] = system: K562 cells; experiment: Live cell confocal microscopy; assay type: cell-based, human; conditions: fluorescein-labeled peptide 1 μM, 30 min, 37°C
Protocol: Non-adherent K562 cells were counted and collected in 1.5 ml Eppendorf tubes at 30 000 cells per tube. After a wash, cells were re-suspended in 200 μl of phenol-red free media containing 5% FCS and fluorescein-labeled peptides (c(peptide) = 1 μM, t = 30 min) in the Eppendorf tubes at 37°C with vertical rotation to avoid cell pelleting. After incubation, cells were washed once with phenol-red free media, re-suspended again in the same media, and transferred into the wells of an 8-chamber μ-slide (Ibidi). Cells were immediately imaged at 37°C with an SP5 Laser Scanning Confocal Microscope (Leica). Fluorescein was excited with an argon ion laser at wavelength of 488 nm and fluorescence was detected in the range 505–530 nm.

[3] = system: pal-DNA; experiment: EMSA with ds DNA analog of pal-RNA; assay type: binding; conditions: fluorescein-labeled peptide 3 μM, oligonucleotide 9 μM
Protocol: Electrophoretic mobility shift assays (EMSAs) were performed using a Bio-Rad Mini-Protean gel system paired with a direct current (DC) power source (PowerPac™ HC, Bio-Rad). […] After incubation, bound RNA was resolved from peptide-free RNA using 10% non-denaturing polyacrylamide gels at 120 V in running buffer (25 mM Tris (pH 8.0), 200 mM glycine, 20 mM NaCl) at 4°C for 1 h. Visualization of fluorescent gel-bound species was conducted using a Typhoon Trio + fluorescence scanner (GE Healthcare Life Sciences). For nucleic acid visualization, gels were stained using 2 μl of SYBR™ gold nucleic acid gel dye (Molecular Probes) in 20 ml of TAE buffer (40 mM Tris, 1 mM EDTA, 20 mM acetic acid) for 45 min at RT before being visualized using a FluorChem™ gel documentation system (Alpha Innotech). To assess B3 binding to different ds RNA sequences (Supplementary Figure S20), 6 μl solutions containing hairpin RNA (c = 1 μM) and fluorescein-labeled B3 (c = 2 μM) were incubated in binding buffer (TAE and 10% glycerol) at RT for 1 h, and then resolved using 15% non-denaturing polyacrylamide gels (acrylamide/bis-acrylamide (19:1) in TAE) at 150 V in running buffer (TAE) at 4°C for 1.5 h. Visualization of fluorescent gel-bound species was conducted using a Bio-Rad ChemiDoc (Bio-Rad). […]

[4] = system: ss-RNA miR-21 3´; experiment: EMSA with single-stranded RNA; assay type: binding; conditions: fluorescein-labeled peptide 3 μM, oligonucleotide 9 μM
[5] = system: pre-miR-21; experiment: Pull-down of pre-miR-21 from K562 cells; assay type: cell-based, human; conditions: biotinylated peptide 10 μM, streptavidin beads, qRT-PCR, triplicate
Protocol: 2 × 10^6 K562 cells were incubated with N-terminally biotinylated peptides (c(peptide) = 10 μM, t = 2.5 h) for uptake on a rotating wheel at 37°C. The cells were extensively washed in PBS and lysed in lysis buffer (25 mM HEPES, pH 7.5, 150 mM NaCl, 0.05% IGEPAL CA-630, 1 mM EDTA) supplemented with 0.5 U/μl RNAse inhibitor (Superase-in, ThermoFisher). The lysate was cleared by centrifugation at 21 000 g at 4°C, an aliquot of the supernatant was removed and re-suspended in Trizol, while the remaining was incubated with streptavidin-coupled magnetic beads (Dynabeads M280, ThermoFisher) on a rotating wheel (2 h, 4°C). After magnetic separation and washing (3× in lysis buffer), the beads were re-suspended in 20 μl lysis buffer, re-suspended in Trizol (ThermoFisher), and 400 ng t-RNA was added per sample as a carrier. RNA was extracted from Trizol using the standard protocol and the qRT-PCR was performed according to a previously published protocol ([62]) using the primers h-miR21-3p-FW ([…]), h-miR21-3p-RV ([…]), h-miR21-5p-FW ([…]), h-miR21-5p-RV ([…]) in a CFX96 real-time machine (Bio-Rad). The relative enrichment was calculated as a ratio of copies in the immunoprecipitate over input normalized to the enrichment of the control peptide D1.

Compound	cellular uptake (in words) [1]	cell permeability by live cell confocal microscopy [2]	binding to ds DNA analog of pal-RNA in EMSA [3]	binding to single-stranded RNA in EMSA [4]	enrichment of pre-miR-21 relative to control peptide D1 [5]	fold increase in uptake relative to wt33 [1] [fold]
CC(C)C[C@@H]1NC(=O)[C@H](CCC(=O)O)NC(=O)[C@H](CO)NC(=O)[C@@](C)(NC(=O)[C@H](CCCNC(=N)N)NC(=O)[C@H](CCC(N)=O)NC(=O)[C@H](CCC(=O)O)NC(=O)[C@H](CO)NC(=O)[C@@H]2CCCN2C(=O)[C@H](CO)NC(=O)[C@H](CCCCN)NC(=O)[C@H](Cc2c[nH]cn2)NC(=O)[C@]2(C)CCCC=CCCCCCC[C@@](C)(NC(=O)[C@H](Cc3c[nH]cn3)NC(=O)[C@H](CCCNC(=N)N)NC(=O)[C@H](CCCCN)NC(=O)[C@H](CCCNC(=N)N)NC(=O)[C@H](CCC(N)=O)NC(=O)[C@H](C)NC(=O)[C@H](CCC(N)=O)NC(=O)[C@H](CCCCN)NC(=O)[C@H](CCCCN)NC(=O)COCCOCCNC(=S)Nc3ccc4c(c3)C(=O)OC43c4ccc(O)cc4Oc4cc(O)ccc43)C(=O)N[C@@H](CC(C)C)C(=O)N[C@@H](CC(N)=O)C(=O)N[C@@H](CCCNC(=N)N)C(=O)N[C@@H](CCCCN)C(=O)N[C@@H](CCC(=O)O)C(=O)N[C@@H](CCCNC(=N)N)C(=O)N2)CCCC=CCCC[C@@](C)(C(=O)N[C@@H](Cc2c[nH]cn2)C(=O)N[C@@H](C)C(=O)N[C@@H](CCCNC(=N)N)C(N)=O)NC1=O [D1] ({FITC-AEEA}-KKQAQRKRH[R8]LNRKER[S5]HKSPSEQR[S5]SEL[S5]HAR-NH2; staple 10-17, 26-30)	considerably enhanced cellular uptake	confirming their cell permeability				
CC(C)C[C@H](NC(=O)[C@]1(C)CCCC=CCCC[C@](C)(NC(=O)[C@H](CCC(=O)O)NC(=O)[C@H](CO)NC(=O)[C@@H]2CCCN2C(=O)[C@H](CO)NC(=O)[C@H](CCCCN)NC(=O)[C@H](Cc2c[nH]cn2)NC(=O)CNC(=O)[C@H](CCCNC(=N)N)NC(=O)[C@]2(C)CCCC=CCCC[C@](C)(NC(=O)[C@H](CCCCN)NC(=O)[C@H](Cc3c[nH]cn3)NC(=O)[C@H](CCCNC(=N)N)NC(=O)[C@H](CCCCN)NC(=O)[C@H](CCCNC(=N)N)NC(=O)[C@H](CCC(N)=O)NC(=O)[C@H](C)NC(=O)[C@H](CCC(N)=O)NC(=O)[C@H](CCCCN)NC(=O)[C@H](CCCCN)NC(=O)COCCOCCNC(=S)Nc3ccc4c(c3)C(=O)OC43c4ccc(O)cc4Oc4cc(O)ccc43)C(=O)N[C@@H](CC(N)=O)C(=O)N[C@@H](CCCNC(=N)N)C(=O)N[C@@H](CCCCN)C(=O)N2)C(=O)N[C@@H](CCCNC(=N)N)C(=O)N[C@@H](CCCNC(=N)N)C(=O)N[C@@H](CO)C(=O)N1)C(=O)N[C@@H](Cc1c[nH]c2ccccc12)C(=O)N[C@@H](Cc1c[nH]cn1)C(=O)N[C@@H](C)C(=O)N[C@@H](CCCNC(=N)N)C(N)=O [B3] ({FITC-AEEA}-KKQAQRKRHK[S5]NRK[S5]RGHKSPSE[S5]RRS[S5]LWHAR-NH2; staple 11-15, 24-28)		confirming their cell permeability	did not bind	did not bind	4 fold	
CC(C)C[C@@H]1NC(=O)[C@@](C)(NC(=O)[C@H](CO)NC(=O)[C@H](CCCNC(=N)N)NC(=O)[C@H](CCCNC(=N)N)NC(=O)[C@H](CCC(N)=O)NC(=O)[C@H](CCC(=O)O)NC(=O)[C@H](CO)NC(=O)[C@@H]2CCCN2C(=O)[C@H](CO)NC(=O)[C@H](CCCCN)NC(=O)[C@H](Cc2c[nH]cn2)NC(=O)CNC(=O)[C@H](CCCNC(=N)N)NC(=O)[C@H](CCC(=O)O)NC(=O)[C@H](CCCCN)NC(=O)[C@H](CCCNC(=N)N)NC(=O)[C@H](CC(N)=O)NC(=O)[C@]2(C)CCCC=CCCCCCC[C@@](C)(NC(=O)[C@H](CCC(N)=O)NC(=O)[C@H](CCCCN)NC(=O)[C@H](CCCCN)NC(=O)COCCOCCNC(=S)Nc3ccc4c(c3)C(=O)OC43c4ccc(O)cc4Oc4cc(O)ccc43)C(=O)N[C@@H](CCC(N)=O)C(=O)N[C@@H](CCCNC(=N)N)C(=O)N[C@@H](CCCCN)C(=O)N[C@@H](CCCNC(=N)N)C(=O)N[C@@H](Cc3c[nH]cn3)C(=O)N[C@@H](CCCCN)C(=O)N2)CCCC=CCCC[C@@](C)(C(=O)N[C@@H](CCCNC(=N)N)C(N)=O)NC(=O)[C@H](Cc2c[nH]cn2)NC(=O)[C@H](Cc2c[nH]c3ccccc23)NC1=O [C1] ({FITC-AEEA}-KKQ[R8]QRKRHK[S5]NRKERGHKSPSEQRRS[S5]LWH[S5]R-NH2; staple 4-11, 28-32)		confirming their cell permeability	did not bind	did not bind	did not show detectable pre-miR-21 enrichment	264
